According to PubChem BioAssay (NCI):
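Each compound was tested at five concentrations against cells in 96-well plates for 48 hours. Here, GI50 denotes the concentration required for 50% inhibition of growth. TGI marks complete inhibition of growth.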

Experiments:
Assay in all cases: inhibition of tumour cell growth, NCI panel, 48 h
EKVX NSCLC = test system: EKVX NSCLC
NCI-H522 lung = test system: NCI-H522 lung
SNB-19 CNS = test system: SNB-19 CNS
SF-268 CNS = test system: SF-268 CNS
SK-MEL-5 melanoma = test system: SK-MEL-5 melanoma
RXF 393 renal = test system: RXF 393 renal
OVCAR-4 ovarian = test system: OVCAR-4 ovarian
HOP-92 NSCLC = test system: HOP-92 NSCLC
SK-MEL-28 melanoma = test system: SK-MEL-28 melanoma
OVCAR-5 ovarian = test system: OVCAR-5 ovarian

| SMILES | TGI (EKVX NSCLC) [µM] | TGI (NCI-H522 lung) [µM] | TGI (SNB-19 CNS) [µM] | TGI (SF-268 CNS) [µM] | TGI (SK-MEL-5 melanoma) [µM] | TGI (RXF 393 renal) [µM] | TGI (OVCAR-4 ovarian) [µM] | TGI (HOP-92 NSCLC) [µM] | TGI (SK-MEL-28 melanoma) [µM] | TGI (OVCAR-5 ovarian) [µM] | GI50 (EKVX NSCLC) [µM] | GI50 (NCI-H522 lung) [µM] | GI50 (SNB-19 CNS) [µM] | GI50 (SF-268 CNS) [µM] | GI50 (SK-MEL-5 melanoma) [µM] | GI50 (RXF 393 renal) [µM] | GI50 (OVCAR-4 ovarian) [µM] | GI50 (HOP-92 NSCLC) [µM] | GI50 (SK-MEL-28 melanoma) [µM] | GI50 (OVCAR-5 ovarian) [µM] |
| --- | --- | --- | --- | --- | --- | --- | --- | --- | --- | --- | --- | --- | --- | --- | --- | --- | --- | --- | --- | --- |
| CC1(CC(=O)O)OC2CCCCCC2O1 (stereo not given) (tested in a mixture with another compound) | > 100 | > 100 | > 100 | > 100 | > 100 | > 100 | > 100 | > 100 | > 100 | > 100 | – | – | – | – | – | – | – | – | – | – |
| CC(C)c1ccc(/C=C(\NC(=O)c2ccccc2)c2nc3ccccc3[nH]2)cc1 | 90 | 89.5 | > 100 | > 100 | 48.7 | > 100 | > 100 | > 100 | – | > 100 | – | – | – | – | – | – | – | – | – | – |
| C/C(=C(/c1ccc(O)cc1)c1ccc(OCCN2CCCC2)cc1)c1ccccc1 | 11.5 | 5.09 | 8.1 | 20.7 | 3.1 | 5.05 | 17.5 | 7.34 | 3.41 | 22.5 | 2.46 | 2.1 | 2.95 | 5.58 | 1.72 | 2 | 4.7 | 2.24 | 1.65 | 7.99 |
| CCOC(=O)c1cnc2[nH]c(=O)c3ccccc3n2c1=O | > 100 | > 100 | > 100 | > 100 | > 100 | > 100 | > 100 | > 100 | > 100 | > 100 | – | – | – | – | – | – | – | – | – | – |
| Nc1ncnc2occ(-c3ccc(NC(=O)Nc4cc(C(F)(F)F)cc(C(F)(F)F)c4)cc3)c12 | 8.07 | 5.67 | 9.54 | 6.66 | 6.82 | 4.51 | 5.92 | 4.42 | 7.77 | 8.99 | 3.16 | 2.55 | 4.1 | 2.92 | 3.52 | 1.24 | 1.81 | 0.977 | 4.24 | 4.39 |
| Cc1ccc(C2=Nc3c(N)ncnc3NC(c3cccc(Nc4ccnc5cc(C(F)(F)F)ccc45)c3)C2)cc1 (stereo not given) | > 100 | 7.51 | > 100 | 47.1 | 4.24 | 3.55 | > 100 | 9.75 | 31.4 | > 100 | 3.95 | 2.27 | 6.71 | 4.47 | 2.05 | 1.69 | 4.33 | 2.54 | 3.81 | 4.96 |
| CCOC(=O)c1[nH]c2c(c1C)-c1[nH]c(=O)c(S(=O)(=O)c3ccccc3)cc1SC2 | > 100 | > 100 | > 100 | > 100 | > 100 | > 100 | 86.5 | 61.1 | > 100 | > 100 | 38.8 | 28.7 | 81.1 | 34.5 | 37.4 | 28.4 | 28.8 | 0.504 | 70 | > 100 |
| CC1=NN(C(=O)CC(=O)Nc2cccc(Cl)c2)C(=O)C1N=Nc1ccc(S(N)(=O)=O)cc1 (stereo not given) | > 100 | > 100 | > 100 | > 100 | > 100 | > 100 | > 100 | > 100 | > 100 | > 100 | – | – | – | – | – | – | – | – | – | – |
| Cc1cc(CS(=O)(=O)/C=C/c2ccccc2[N+](=O)[O-])c(CS(=O)(=O)/C=C/c2ccccc2[N+](=O)[O-])cc1C | > 100 | > 100 | > 83.1 | > 100 | > 100 | 41.2 | 32.3 | 74.1 | > 100 | > 100 | – | – | – | – | – | – | – | – | – | – |
| N#CC1c2ccccc2-c2ccccc2N1C(=O)c1ccccc1 (stereo not given) | > 100 | 1.48 | > 100 | 23.4 | 4.84 | 13.2 | > 72.3 | 19.9 | > 100 | > 100 | 7.2 | 0.223 | 4.12 | 3.03 | 1.55 | 0.913 | 3.29 | 2.42 | 1.75 | 5.37 |
| COc1ccccc1Cn1cc2c(c1)-c1oncc1CC2 | > 94.2 | 5.08 | > 100 | > 75.1 | 6.77 | > 21.4 | 97.9 | 57.7 | > 100 | > 74.1 | 0.83 | 1.22 | 0.625 | 1.21 | 0.45 | 1.31 | 3.86 | 2.75 | 2.52 | 0.756 |
| O=c1oc(-c2ccc(O)c(O)c2)cc2cc(O)cc(O)c12 | 91.3 | > 100 | > 100 | > 100 | 42.2 | > 100 | > 100 | > 100 | > 100 | > 100 | 28.4 | 27.3 | 56.3 | 32.4 | 18 | 35.9 | 76.6 | 25.5 | 39.5 | 36.7 |
| COC(=O)/C(=N\NC(=O)c1ccccc1O)C(C#N)c1ccc(Cl)cc1 (stereo not given) | > 100 | 72.3 | – | > 100 | > 100 | 79.8 | > 100 | > 100 | > 100 | 90.3 | – | – | – | – | – | – | – | – | – | – |
| O=C(Cc1nc2ccc(C(=O)c3ccccc3)cc2[nH]c1=O)C(=O)Nc1ccccc1[N+](=O)[O-] | > 100 | > 100 | – | > 100 | > 100 | > 100 | > 100 | > 100 | > 100 | > 100 | – | – | – | – | – | – | – | – | – | – |
| CC1Cc2c(N(C)C)ncnc2N(C)c2ccc(Cl)cc21 (stereo not given) | > 100 | 35.3 | > 100 | > 100 | 13.8 | 6.98 | > 100 | 69.6 | > 100 | – | 2.77 | 2.79 | 5.81 | 8.09 | 3.65 | 2.03 | 9.76 | 11 | 10.8 | – |
